{"source": "patent US20100298141A1", "about": "“SUBSTITUTED PYRIDINE N-OXIDE HERBICIDES” (E. I. DU PONT DE NEMOURS AND COMPANY, priority 2007, published 2010)", "key": {"barnyardgrass": {"test_system": "barnyardgrass", "assay": "Test A pre-/postemergence greenhouse test", "type": "in vivo, Echinochloa crus-galli", "settings": "for Barnyardgrass plant response rating: 0 to 100 scale; for Plant response rating, Barnyardgrass: 0 to 100 scale where 0 is no effect and 100 is complete control", "procedure,_shortened": "(§1)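 Each test compound, dissolved in a non-phytotoxic solvent mixture with surfactant, was sprayed directly onto seeded soil (loam/sand blend) and, at the same moment, onto seedlings carrying one to two leaves. Around ten greenhouse days later, plants were rated visually for injury relative to untreated controls.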"}, "velvetleaf": {"test_system": "velvetleaf", "assay": "Test A pre-/postemergence greenhouse test", "type": "in vivo, Abutilon theophrasti", "settings": "for Velvetleaf plant response rating: 0 to 100 scale; for Plant response rating, Velvetleaf: 0 to 100 scale where 0 is no effect and 100 is complete control", "procedure,_shortened": "as §1"}, "green foxtail": {"test_system": "green foxtail", "assay": "Test C pre-/postemergence test", "type": "in vivo, Setaria viridis", "from_the_text": "(§2) Seeds of plant species selected from blackgrass (Alopecurus myosuroides), downy brome (Bromus tectorum), green foxtail (Setaria viridis), Italian ryegrass (Lolium multiflorum), wheat (Triticum aestivum), wild oat (Avena fatua), catchweed bedstraw (Galium aparine), Russian thistle (Salsola kali), […] (Cynodon dactylon), Surinam grass (Brachiaria decumbens), cocklebur (Xanthium strumarium), corn (Zea mays), crabgrass (Digitaria sanguinalis), woolly cupgrass (Eriochloa villosa), giant foxtail (Setaria faberii), Goosegrass (Eleusin indica), johnsongrass (Sorghum halepense), kochia (Kochia scoparia), lambsquarters (Chenopodium album), morningglory (Ipomoea coccinea), eastern black nightshade (Solanum ptycanthum), yellow nutsedge (Cyperus esculentus), pigweed (Amaranthus retroflexus), common ragweed (Ambrosia elation), soybean (Glycine max), common (oilseed) sunflower (Helianthus annuus), and velvetleaf (Abutilon theophrasti) were planted and treated preemergence with test chemicals formulated in a non-phytotoxic solvent mixture which included a surfactant. At the same time, plants selected from these crop and weed species and also winter barley (Hordeum vulgare), canarygrass (Phalaris minor), and chickweed (Stellaria media) were treated with postemergence applications of some of the test chemicals formulated in the same manner. Plants ranged in height from 2 to 18 cm (1- to 4-leaf stage) for postemergence treatments. […] At time of treatment, test pots were flooded to 3 cm above the soil surface, treated by application of test compounds directly to the paddy water, and then maintained at that water depth for the duration of the test. […] A dash (-) response means no test result."}, "Italian ryegrass": {"test_system": "Italian ryegrass", "assay": "Test C pre-/postemergence test", "type": "in vivo, Lolium multiflorum", "from_the_text": "as §2"}, "[1]": {"settings": "Postemergence, 125 g ai/ha, 0 is no effect, 100 is complete control"}, "[2]": {"settings": "Postemergence, 500 g ai/ha, 0 is no effect, 100 is complete control"}, "[3]": {"settings": "Preemergence, 125 g ai/ha, 0 no effect, 100 complete control"}, "[4]": {"settings": "62 g ai/ha, Preemergence, scale 0 to 100"}, "[5]": {"settings": "Preemergence, 31 g ai/ha, scale 0 to 100 (0 no effect, 100 complete control)"}, "[6]": {"settings": "Postemergence, 125 g ai/ha, scale 0 to 100, 0 no effect, 100 complete control"}, "[7]": {"settings": "Postemergence, 250 g ai/ha, scale 0 to 100, 0 no effect, 100 complete control"}, "[8]": {"settings": "125 g ai/ha, preemergence, scale 0 (no effect) to 100 (complete control)"}, "[9]": {"settings": "preemergence, 250 g ai/ha, scale 0 (no effect) to 100 (complete control)"}}, "data": [{"smiles": "Cn1nc(C(F)(F)F)c(C[S+]([O-])c2ccc(Cl)c[n+]2[O-])c1Cl", "note": "(racemic) [Compound 17]", "values": [{"measurement": "Barnyardgrass plant response rating", "setting": "barnyardgrass; [1]", "result": 80}, {"measurement": "Barnyardgrass plant response rating", "setting": "barnyardgrass; [2]", "result": 90}, {"measurement": "Barnyardgrass plant response rating", "setting": "barnyardgrass; [3]", "result": 70}, {"measurement": "Plant response rating, Barnyardgrass", "setting": "barnyardgrass; Preemergence, 500 g ai/ha", "result": 100}, {"measurement": "Velvetleaf plant response rating", "setting": "velvetleaf; [1]", "result": 50}, {"measurement": "Velvetleaf plant response rating", "setting": "velvetleaf; [2]", "result": 80}, {"measurement": "Velvetleaf plant response rating", "setting": "velvetleaf; [3]", "result": 60}, {"measurement": "Plant response rating, Velvetleaf", "setting": "velvetleaf; Preemergence, 500 g ai/ha", "result": 100}, {"measurement": "Foxtail, Green plant response rating", "setting": "green foxtail; [4]", "result": 100}, {"measurement": "Plant response rating, Foxtail, Green", "setting": "green foxtail; [5]", "result": 70}, {"measurement": "Plant response rating (0 to 100), Foxtail, Green", "setting": "green foxtail; Preemergence, 250 g ai/ha", "result": 100}, {"measurement": "Ryegrass, Italian plant response rating", "setting": "Italian ryegrass; [4]", "result": 60}, {"measurement": "Plant response rating, Ryegrass, Italian", "setting": "Italian ryegrass; [5]", "result": 30}]}, {"smiles": "CCn1nc(C(F)(F)F)c(C(C)S(=O)(=O)c2cccc[n+]2[O-])c1OCC(F)(F)F", "note": "(centres unmarked) [Compound 69]", "values": [{"measurement": "Plant response rating, Barnyardgrass", "setting": "barnyardgrass; Postemergence, 125 g ai/ha", "result": 80}, {"measurement": "Barnyardgrass plant response rating", "setting": "barnyardgrass; [2]", "result": 90}, {"measurement": "Barnyardgrass plant response rating", "setting": "barnyardgrass; [3]", "result": 60}, {"measurement": "Plant response rating, Barnyardgrass", "setting": "barnyardgrass; Preemergence, 500 g ai/ha", "result": 100}, {"measurement": "Plant response rating, Velvetleaf", "setting": "velvetleaf; Postemergence, 125 g ai/ha", "result": 50}, {"measurement": "Velvetleaf plant response rating", "setting": "velvetleaf; [2]", "result": 80}, {"measurement": "Velvetleaf plant response rating", "setting": "velvetleaf; [3]", "result": 10}, {"measurement": "Plant response rating, Velvetleaf", "setting": "velvetleaf; Preemergence, 500 g ai/ha", "result": 100}, {"measurement": "Plant response rating (0 to 100), Foxtail, Green", "setting": "green foxtail; Postemergence, 31 g ai/ha", "result": 0}, {"measurement": "Plant response rating, Foxtail, Green", "setting": "green foxtail; Postemergence, 62 g ai/ha, scale 0 to 100, 0 no effect, 100 complete control", "result": 0}, {"measurement": "Plant response rating, Foxtail, Green", "setting": "green foxtail; [6]", "result": 30}, {"measurement": "Plant response rating, Foxtail, Green", "setting": "green foxtail; [7]", "result": 90}, {"measurement": "Plant response rating (0 to 100), Ryegrass, Italian", "setting": "Italian ryegrass; Postemergence, 31 g ai/ha", "result": 0}, {"measurement": "Plant response rating (0 to 100), Ryegrass, Italian", "setting": "Italian ryegrass; Postemergence, 62 g ai/ha", "result": 40}, {"measurement": "Plant response rating, Ryegrass, Italian", "setting": "Italian ryegrass; [6]", "result": 50}, {"measurement": "Plant response rating, Ryegrass, Italian", "setting": "Italian ryegrass; [7]", "result": 95}]}, {"smiles": "Cn1nc(C(F)(F)F)c(CS(=O)(=O)c2cccc[n+]2[O-])c1OCC(F)F", "note": "[Compound 81]", "values": [{"measurement": "Plant response rating, Barnyardgrass", "setting": "barnyardgrass; Postemergence, 125 g ai/ha", "result": 60}, {"measurement": "Barnyardgrass plant response rating", "setting": "barnyardgrass; [2]", "result": 80}, {"measurement": "Barnyardgrass plant response rating", "setting": "barnyardgrass; [3]", "result": 90}, {"measurement": "Plant response rating, Barnyardgrass", "setting": "barnyardgrass; Preemergence, 500 g ai/ha", "result": 100}, {"measurement": "Plant response rating, Velvetleaf", "setting": "velvetleaf; Postemergence, 125 g ai/ha", "result": 10}, {"measurement": "Velvetleaf plant response rating", "setting": "velvetleaf; [2]", "result": 70}, {"measurement": "Velvetleaf plant response rating", "setting": "velvetleaf; [3]", "result": 10}, {"measurement": "Plant response rating, Velvetleaf", "setting": "velvetleaf; Preemergence, 500 g ai/ha", "result": 100}, {"measurement": "Foxtail, Green plant response rating", "setting": "green foxtail; [4]", "result": 75}, {"measurement": "Foxtail, Green plant response rating", "setting": "green foxtail; [8]", "result": 100}, {"measurement": "Plant response rating, Foxtail, Green", "setting": "green foxtail; [5]", "result": 65}, {"measurement": "Foxtail, Green plant response rating", "setting": "green foxtail; [9]", "result": 100}, {"measurement": "Ryegrass, Italian plant response rating", "setting": "Italian ryegrass; [4]", "result": 0}, {"measurement": "Ryegrass, Italian plant response rating", "setting": "Italian ryegrass; [8]", "result": 50}, {"measurement": "Plant response rating, Ryegrass, Italian", "setting": "Italian ryegrass; [5]", "result": 0}, {"measurement": "Ryegrass, Italian plant response rating", "setting": "Italian ryegrass; [9]", "result": 100}]}, {"smiles": "Cn1nc(C(F)(F)F)c(C[S+]([O-])c2cc(F)cc[n+]2[O-])c1Cl", "note": "(racemic) [Compound 42]", "values": [{"measurement": "Barnyardgrass plant response rating", "setting": "barnyardgrass; [1]", "result": 70}, {"measurement": "Barnyardgrass plant response rating", "setting": "barnyardgrass; [2]", "result": 80}, {"measurement": "Barnyardgrass plant response rating", "setting": "barnyardgrass; [3]", "result": 80}, {"measurement": "Plant response rating, Barnyardgrass", "setting": "barnyardgrass; Preemergence, 500 g ai/ha", "result": 100}, {"measurement": "Velvetleaf plant response rating", "setting": "velvetleaf; [1]", "result": 0}, {"measurement": "Velvetleaf plant response rating", "setting": "velvetleaf; [2]", "result": 60}, {"measurement": "Velvetleaf plant response rating", "setting": "velvetleaf; [3]", "result": 10}, {"measurement": "Plant response rating, Velvetleaf", "setting": "velvetleaf; Preemergence, 500 g ai/ha", "result": 80}, {"measurement": "Foxtail, Green plant response rating", "setting": "green foxtail; [4]", "result": 100}, {"measurement": "Foxtail, Green plant response rating", "setting": "green foxtail; [8]", "result": 100}, {"measurement": "Plant response rating, Foxtail, Green", "setting": "green foxtail; [5]", "result": 98}, {"measurement": "Foxtail, Green plant response rating", "setting": "green foxtail; [9]", "result": 100}, {"measurement": "Ryegrass, Italian plant response rating", "setting": "Italian ryegrass; [4]", "result": 55}, {"measurement": "Ryegrass, Italian plant response rating", "setting": "Italian ryegrass; [8]", "result": 80}, {"measurement": "Ryegrass, Italian plant response rating", "setting": "Italian ryegrass; [9]", "result": 85}]}, {"smiles": "Cn1nc(C(F)(F)F)c(C[S+]([O-])c2cc(Cl)cc[n+]2[O-])c1Cl", "note": "(racemic) [Compound 39]", "values": [{"measurement": "Barnyardgrass plant response rating", "setting": "barnyardgrass; [1]", "result": 70}, {"measurement": "Barnyardgrass plant response rating", "setting": "barnyardgrass; [2]", "result": 90}, {"measurement": "Barnyardgrass plant response rating", "setting": "barnyardgrass; [3]", "result": 90}, {"measurement": "Plant response rating, Barnyardgrass", "setting": "barnyardgrass; Preemergence, 500 g ai/ha", "result": 100}, {"measurement": "Velvetleaf plant response rating", "setting": "velvetleaf; [1]", "result": 40}, {"measurement": "Velvetleaf plant response rating", "setting": "velvetleaf; [2]", "result": 60}, {"measurement": "Velvetleaf plant response rating", "setting": "velvetleaf; [3]", "result": 70}, {"measurement": "Plant response rating, Velvetleaf", "setting": "velvetleaf; Preemergence, 500 g ai/ha", "result": 100}]}]}
